Laboratory results as given in patent US7265152B2 (ViroPharma Incorporated, priority 2002, dated 2007).
pEC50, pIC50: −log10 of the molar value.

Legend:
[1] = molecular target: T1, HCV NS5B (Hepatitis C virus genotype 1b, UniProt Q9WMX2); assay: Inhibition of viral RNA-dependent RNA polymerase (RdRp), in vitro biochemical assay; set-up: species or system HCV genotype 1b virus (BB7); details: HCV NS5B RdRp, BB7; reported as range class; read-out: HCV pol-BB7 IC50
T1 construct: fusion protein, of which the carboxyl terminal 21 amino acids were removed to enhance its solubility; His tag (GSHHHHHH); made in house; host or cells: E. coli
Procedure, shortened: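 Purified recombinant NS5B from a genotype 1b consensus (BB7), His-tagged, E. coli-expressed, with the C-terminal 21 residues deleted. Inhibition of RdRp activity in vitro was measured, and IC50 is the concentration giving 50% inhibition.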

[2] = test system: HCV replicon (BB7 sequence) in Huh-7-Clone A cells; assay: HCV replicon assay: ELISA of NS5A protein in replicon-containing cells (Inhibition of Viral RNA Replication); type: cell-based; details: Hepatitis C virus; HCV replicon, range of EC50; read-out: Replicon
Procedure, shortened: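 Huh-7-Clone A cells carrying subgenomic BB7 HCV replicon (G418-selectable) incubated 72 h with compound. NS5A protein quantified by cell ELISA: glutaraldehyde fixation, anti-NS5A monoclonal plus HRP secondary, TMB read at OD 650 nm. EC50 derived from 8-point serial dilution dose curve.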

| SMILES | pIC50 [1] | pEC50 [2] |
| --- | --- | --- |
| CNC(=O)c1c(-c2ccc(F)cc2)oc2cc(N(C3CCC3)S(C)(=O)=O)c(OC(C)C)cc12 [Example 190, 6-(Cyclobutyl-methanesulfonyl-amino)-2-(4-fluoro-phenyl)-5-isopropoxy-benzofuran-3-carboxylic acid methylamide] | ≥ 6.30 | > 6.00 |
| CNC(=O)c1c(-c2ccc(F)cc2)oc2cc(N(CCN3CCOCC3)S(C)(=O)=O)c(OC(C)C)cc12 [Example 191, 2-(4-Fluoro-phenyl)-5-isopropoxy-6-[methanesulfonyl-(2-morpholin-4-yl-ethyl)-amino]-benzofuran-3-carboxylic acid methylamide] | ≥ 6.30 | > 6.00 |
| CNC(=O)c1c(-c2ccc(F)cc2)oc2cc(O)c(O)cc12 [Example 192, 2-(4-Fluoro-phenyl)-5,6-dihydroxy-benzofuran-3-carboxylic acid methylamide] | 4.52 to 5.30 | < 4.52 |
| CNC(=O)c1c(-c2ccc(F)cc2)oc2cc(N(CCOC)S(C)(=O)=O)c(OC(C)C)cc12 [Example 193, 2-(4-Fluoro-phenyl)-5-isopropoxy-6-[methanesulfonyl-(2-methoxy-ethyl)-amino]-benzofuran-3-carboxylic acid methylamide] | ≥ 6.30 | > 6.00 |
| C=CCN(c1cc2oc(-c3ccc(F)cc3)c(C(=O)NC)c2cc1OC(C)C)S(C)(=O)=O [Example 195, 6-(Allyl-methanesulfonyl-amino)-2-(4-fluoro-phenyl)-5-isopropoxy-benzofuran-3-carboxylic acid methylamide] | ≥ 6.30 | > 6.00 |
| CNC(=O)c1c(-c2ccc(F)cc2)oc2cc(C(C)=O)c(OC(C)C)cc12 [Example 196, 6-Acetyl-2-(4-fluoro-phenyl)-5-isopropoxy-benzofuran-3-carboxylic acid methyladime] | ≥ 6.30 | > 6.00 |
| CC(C)NC(=O)c1c(-c2ccc(F)cc2)oc2cc(NS(C)(=O)=O)c(OC(C)C)cc12 [Example 197, 2-(4-Fluoro-phenyl)-5-isopropoxy-6-methanesulfonylamino-benzofuran-3-carboxylic acid isopropylamide] | 4.52 to 5.30 | > 5.00 |
| CNC(=O)c1c(-c2ccc(F)cc2)oc2cc(-c3noc(C)n3)c(OC(C)C)cc12 [Example 198, 2-(4-Fluoro-phenyl)-5-isopropoxy-6-(5-methyl-[1,2,4]oxadiazol-3-yl)-benzofuran-3-carboxylic acid methylamide] | ≥ 6.30 | > 6.00 |
| CC(C)Oc1cc2c(C(=O)NC3CC3)c(-c3ccc(F)cc3)oc2cc1NS(C)(=O)=O [Example 199, 2-(4-Fluoro-phenyl)-5-isopropoxy-6-methanesulfonylamino-benzofuran-3-carboxylic acid cyclopropylamide] | ≥ 6.30 | > 6.00 |
| CCNC(=O)c1c(-c2ccc(F)cc2)oc2cc(NS(C)(=O)=O)c(OC(C)C)cc12 [Example 200, 2-(4-Fluoro-phenyl)-5-isopropoxy-6-methanesulfonylamino-benzofuran-3-carboxylic acid ethylamide] | ≥ 6.30 | > 6.00 |
| CNC(=O)c1c(-c2ccc(F)cc2)oc2cc(N3CCOCC3)c(OCc3csc(C)n3)cc12 [Example 201, 2-(4-Fluoro-phenyl)-5-(2-methyl-thiazol-4-ylmethoxy)-6-morpholin-4-yl-benzofuran-3-carboxylic acid methylamide] | ≥ 6.30 | > 6.00 |
| CNC(=O)c1c(-c2ccc(F)cc2)oc2cc(C(C)(C)O)c(OC(C)C)cc12 [Example 202, 2-(4-Fluoro-phenyl)-6-(1-hydroxy-1-methyl-ethyl)-5-isopropoxy-benzofuran-3-carboxylic acid methylamide] | ≥ 6.30 | > 6.00 |
